What was measured:
insulin+ cells = assay: Endocrine cell marker expression of insulin+ cells in GABA-treated pancreata (immunochemistry); assay type: in vivo, mouse; details: GABA-treated islets versus non-treated controls; Pdx1, Nkx6.1, NeuroD1, Glut 2, PC1/3, Pax6
Protocol: (§1) Immunohistochemistry: Tissues were fixed in 4% PFA for 30 min at 4° C., embedded in paraffin and 8 μm sections applied to slides. These sections were assayed as described previously [Collombat et al., 2003]. The primary antibodies used were the following: guinea pig polyclonal anti-insulin (1/500-Linco), anti-glucagon (1/500-Milipore), mouse monoclonal anti-glucagon (1/500-Sigma), anti-BrdU (1/40-Roche), anti-E-cadherin (1/200-BD Transduction Lab), rat anti-somatostatin (1/250-Millipore), rabbit anti-Glut2 (1/5000), anti-PC1/3 (1/500-Milipore), anti-Nkx6.1 (1/3000-Novonordisk), anti-Pdx1 (1/1000), anti-NeuroD1 (1/200-Milipore), anti-Ngn3 (1/500-Abgent), anti-β-galactosidase (1/10000-Milipore), chicken anti vimentin (1/5000-Milipore), goat anti-osteopontin (1/200-R&D Systems). The secondary antibodies (1/1000-Molecular Probes) used were: 594- and 488-alexa anti-mouse; 594- and 488-alexa anti-rabbit; 594- and 488-alexa anti-guinea pig; 488-alexa anti-rat; 594- and 488-alexa anti-goat; 594- and 488-alexa anti-chicken. Pictures were processed using ZEISS Axioimager Z1 and LEICA DM 6000 B. For quantification purpose, stained cells were counted manually on every tenth section.
To ascertain the identity of the insulin^+ cells in GABA-treated pancreata, we assayed the expression of several endocrine cell marker genes by immunochemistry compared to non-treated controls. […]

[1] = test system: Arx mRNA in α-TC1-6 cells; assay: Relative Arx mRNA expression in α-TC1-6 cells treated with GABA; assay type: cell-based; details: α-TC1-6 cell line, increasing GABA concentrations, different periods of time, versus non-treated cells
Protocol: Relative Arx mRNA expression was measured in the different conditions.
RNA Analysis: RNA was isolated (RNEASY® (RNA isolation kit), Qiagen) and cDNA synthesis ([…]® (cDNA synthesis kit) choice system, Invitrogen) was performed according to the manufacturer's instructions. Quantitative RT-PCR was carried out using validated primers (Qiagen) and the […]® SYBR Green RT-PCR Kit (Qiagen) following manufacturer's instructions. PCR reactions and detection were performed on a […]® ep realplex cycler using GAPDH and HPRT1 as internal controls for normalization purposes.

[2] = test system: glucagon-expressing cells; assay: β-galactosidase lineage tracing in Glu-Cre::Rosa26-lox-β-gal mice treated with streptozotocin and GABA; assay type: in vivo, mouse; details: isolated 40 days post-streptozotocin injection, daily GABA
Protocol: β-galactosidase-based lineage-tracing experiments: Pancreatic tissues were isolated and fixed for 30 min at 4° C. in a solution containing 1% formaldehyde, 0.2% glutaraldehyde, 0.02% NP40. The tissues were dehydrated in 25% sucrose overnight at 4° C. Prior to sectioning, tissues were embedded in freezing medium. For β-galactosidase activity assessment, the tissues were washed in PBS and then incubated overnight in staining solution (500 mM K3Fe(CN)6, 250 mM K4Fe(CN)6, 0.5M MgCl2, 40 mg/ml X-gal in DMF).
Several examples, from unrelated islets, of cells co-expressing insulin with glucagon were noted. […] To validate this hypothesis, we used Glu-Cre::Rosa26-lox-β-gal mice. […] It is important to note that such double-positive cells (in lesser proportion) are also observed in GABA-treated Glu-Cre::Rosa26-lox-β-gal animals not subjected to streptozotocin administration.

Ngn3 = Ngn3 immunohistochemistry in GABA-treated pancreata; assay type: in vivo, mouse; details: no Ngn3 expression in control animals
Protocol: as §1, with “section. […]” for “section.”

[3] = test system: pancreatic cells of WT mice; assay: BrdU cell proliferation in GABA-treated WT mice; assay type: in vivo, mouse
From the text: Thus, to gain further insight into the mechanisms underlying these processes, we administered the thymidine analogue 5-bromo-2′-deoxyuridine (BrdU) to detect actively replicating cells. […] In addition, glucagon^+ and somatostatin^+ cells were not uniformly distributed within the islet mantle but rather found clustered at a pole of the islet, adjacent to neighboring ducts, unlike in controls where the distribution of the non-β-cells were found scattered in the mantle of the islets.

WT mice [4] = assay: Glucose tolerance test in GABA- and STZ-treated WT mice; assay type: in vivo, mouse; details: surviving GABA-treated mice, 85 days post-streptozotocin, versus controls not treated with GABA or streptozotocin
From the text: (§2) FIG. 4: The β-like cell mass can be regenerated following streptozotocin treatment in GABA-treated mice, the neo-generated insulin^+ cells being functional. […] Such a recovery is associated with a clear regeneration of their β-cell mass monitored 5, 10, 25 and 45 days post-streptozotocin administration by immunochemistry. 85 days post-streptozotocin injection, GABA- and STZ-treated WT and non-treated controls were subjected to a glucose tolerance test (GTT) (B).

WT mice [5] = assay: Streptozotocin-mediated diabetes in WT mice treated with GABA; assay type: in vivo, mouse
From the text: as §2
Induction of streptozotocin-mediated diabetes: To induce hyperglycaemia, STZ (Sigma) was dissolved in 0.1M sodium citrate buffer (pH 4.5), and a single dose was administered intraperitoneally (100 mg/kg) within 10 min of dissolution. Diabetes progression was assessed by the monitoring of blood glucose levels of the mice.
A functional β-cell mass can be regenerated following chemically-induced diabetes in GABA-treated animals: To determine whether neo-formed insulin^+ cells could functionally replace endogenous β-cells, we injected WT animals with a high dose of streptozotocin to obliterate the endogenous β-cell mass.

[6] = Life expectancy, basal glycemia and general health of GABA-treated WT mice
mice = details: streptozotocin-induced diabetes in mice (Soltani et al., 2011; Gomez et al., 2007); cited from earlier work
[7] = test system: pancreatic islets of WT mice; assay: Quantification of islets and hormone-expressing cells in GABA-treated WT mice (immunohistochemistry, pixel counting); assay type: in vivo, mouse; details: versus aged-matched controls; for Glucagon+ cell count / Somatostatin+ cell count / Insulin+ cell count: pixel counting; for Insulin+ cell count / Islet count / Islet size: mean ± SEM; for Islet count / Islet size: treatment age 2.6 m
Protocol: as §1
Cell counts: Quantitative analyses were performed by the counting of colored pixels on (immuno-) stained sections of pancreas using the Photoshop software. Specifically, every 10th section was processed using the same settings for all animals and genotypes.

NOD mice = NOD mice (Soltani et al., 2011; Tian et al., 2011); cited from earlier work

## NCCCC(=O)O [GABA, gamma-amino butyric acid]
insulin+ cells
  Expression of β-cell markers in insulin-expressing cells: uniformly expressed the bona fide β-cell markers
[1]
  Arx mRNA expression: decrease in Arx mRNA expression
[2]
  Insulin and β-galactosidase co-labelling (conversion of glucagon-expressing cells): a majority of cells positive for insulin and β-galactosidase
Ngn3
  Ngn3 expression: reactivation of Ngn3 in the ductal environment
[3]; GABA-treated WT pancreata, BrdU for 10 days
  Location of BrdU+ proliferating cells: predominantly located in the ductal lining and in the ductal epithelium
[3]; GABA-treated mice, relative to the size of the islets, data not shown
  β-cell proliferation: lack of a significant increase in β-cell proliferation
WT mice [4]
  Response to glucose challenge: improved response with a lower raise in glycemia and a faster return to euglycemia
WT mice [5]; GABA-treated WT animals after streptozotocin, immunohistochemistry at different time points
  Regeneration of insulin+ cells after β-cell loss: progressively regenerated
WT mice [5]; WT mice, high dose STZ, GABA started at approximately 300 mg/dl, water controls died from extreme hyperglycemia
  Glycemia course after streptozotocin: steady recovery
WT mice [5]; surviving GABA-treated mice, data not shown
  Sensitivity to another round of streptozotocin: not sensitive to STZ
[6]; GABA-treated WT mice
  Viability, health and fertility of treated animals: viable, healthy and fertile
[6]; WT mice, GABA treatment duration 1 month, treatment age 2.6 m
  Life expectancy: normal
[6]; WT mice, GABA treatment duration 2 months, treatment age 2.6 m
  Life expectancy: normal
[6]; WT mice, GABA treatment duration 3 months, treatment age 2.6 m
  Life expectancy: normal
[6]; WT mice, GABA treatment duration 3 months, treatment age 2.6 m, monitored weekly
  Basal glycemia: 142
mice
  Blood glucose levels: decrease blood glucose levels
[7]; GABA 1 month
  Glucagon+ cell count: x 0.97
  Somatostatin+ cell count: x 1.43
  Insulin+ cell count: x 1.04 ± 0.15
  Islet count: x 2.19 ± 0.04
  Islet size: x 1.04 ± 0.15
[7]; GABA 2 months
  Glucagon+ cell count: x 1.91
  Somatostatin+ cell count: x 2.39
  Insulin+ cell count: x 2.15 ± 0.22
  Islet count: x 1.86 ± 0.05
  Islet size: x 2.15 ± 0.22
[7]; GABA 3 months
  Glucagon+ cell count: x 3.02
  Somatostatin+ cell count: x 2.84
  Insulin+ cell count: x 3.49 ± 0.11
  Islet count: x 1.80 ± 0.03
  Islet size: x 3.49 ± 0.11
NOD mice
  Diabetes reversal: reverse diabetes
